Laboratory results taken from patent EP0296574A2, “Cholecystokinin analogs for controlling appetite” (F. HOFFMANN-LA ROCHE AG, priority 1987, dated 1988).
Where a SMILES comes first, the peptide text is derived from it. [ ]: non-standard residue; d: D form. Thr(SO3H) = C[C@@H](OS(=O)(=O)O)[C@H](N)C(=O)O; sY = N[C@@H](Cc1ccc(OS(=O)(=O)O)cc1)C(=O)O; NMeF = CN[C@@H](Cc1ccccc1)C(=O)O; Nle = CCCC[C@H](N)C(=O)O

Experiments:
[1] = molecular target: T1, Bovine Striatum (Bos taurus, UniProt P79266); assay: In vitro receptor binding assay, inhibition of ³H-CCK-8-(SO₃H) binding to bovine striatum homogenate; settings: ³H-CCK-8-(SO₃H) 0.15 nM, 30 min at 25° C; read-out: Bovine Striatum (IC₅₀ value)
T1 construct: tissue homogenate (striatum 0.26 mg protein in 2 ml final volume); from tissue; host or cells: bovine striatum homogenate (membrane pellet)
T1 sequence (P79266 1-454): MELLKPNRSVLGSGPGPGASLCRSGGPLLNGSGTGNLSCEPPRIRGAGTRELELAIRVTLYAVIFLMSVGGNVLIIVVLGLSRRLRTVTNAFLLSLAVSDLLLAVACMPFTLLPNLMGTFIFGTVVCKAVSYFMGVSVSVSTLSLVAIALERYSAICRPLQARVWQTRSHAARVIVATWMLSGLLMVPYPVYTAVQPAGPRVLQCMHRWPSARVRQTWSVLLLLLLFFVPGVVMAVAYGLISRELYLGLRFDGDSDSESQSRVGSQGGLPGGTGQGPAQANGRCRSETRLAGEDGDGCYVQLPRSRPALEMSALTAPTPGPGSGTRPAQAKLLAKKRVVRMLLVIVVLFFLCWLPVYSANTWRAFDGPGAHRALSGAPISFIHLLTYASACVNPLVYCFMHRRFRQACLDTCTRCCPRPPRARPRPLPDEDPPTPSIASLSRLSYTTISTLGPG
Experimental: (§1) The tissue was homogenized 2 x for approx. 15 sec. at 0°C using a Polytron homogenizer at a setting of 6. The tissue was isolated by centrifugation at 48,000 x g for 10 min. at 0°C. […] Samples were incubated for 30 min. at 25° C and the incubation terminated by pouring the mixture onto a pre-wet Whatman GF/B filter on a Sandbeck Vacuum Filtration Manifold. The incubation tubes were washed with 2 x 3 ml of ice-cold HEPES Buffer #2 and the wash filtered through the GF/B filter. The filter was air dried for 10 min. and then placed in a scintillation vial with 12 ml of Beckman HP/b Ready-Solv scintillation cocktail. The vials were shaken for 2 hours and then counted using a Beckman Model 7800 liquid scintillation spectrometer.

[2] = molecular target: T2, Rat Pancreas (Rattus norvegicus, UniProt P30551); assay: In vitro receptor binding assay, inhibition of ³H-CCK-8-(SO₃H) binding to rat pancreas homogenate; settings: ³H-CCK-8-(SO₃H) 0.15 nM, 30 min at 25° C; read-out: Rat Pancreas (IC₅₀ value)
T2 construct: pancreas 0.165 mg protein in 1 ml final volume; from tissue; host or cells: rat pancreas homogenate (membrane pellet)
T2 sequence (P30551 1-444): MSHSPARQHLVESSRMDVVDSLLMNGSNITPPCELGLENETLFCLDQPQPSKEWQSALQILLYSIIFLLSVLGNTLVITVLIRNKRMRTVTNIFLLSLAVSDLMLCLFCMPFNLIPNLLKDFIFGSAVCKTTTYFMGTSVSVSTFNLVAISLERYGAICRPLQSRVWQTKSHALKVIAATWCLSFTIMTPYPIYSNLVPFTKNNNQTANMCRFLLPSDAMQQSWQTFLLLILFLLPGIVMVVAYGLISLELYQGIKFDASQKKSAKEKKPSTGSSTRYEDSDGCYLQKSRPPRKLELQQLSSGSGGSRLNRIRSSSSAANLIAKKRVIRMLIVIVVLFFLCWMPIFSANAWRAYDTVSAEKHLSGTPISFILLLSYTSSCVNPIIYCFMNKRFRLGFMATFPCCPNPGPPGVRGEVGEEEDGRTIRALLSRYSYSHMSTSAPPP
Experimental: as §1

| IC50 [1] [nM] | IC50 [2] [nM] | SMILES |
| --- | --- | --- |
| 245 | 0.14 | CCCC[C@H](NC(=O)[C@H](Cc1ccc(OS(=O)(=O)O)cc1)NC(C)=O)C(=O)NCC(=O)N[C@@H](Cc1c[nH]c2ccccc12)C(=O)N[C@@H](CCCC)C(=O)N[C@H](C(=O)N(C)[C@@H](Cc1ccccc1)C(N)=O)[C@@H](C)OS(=O)(=O)O [Example 1, Ac-Tyr(SO₃H)-Nle-Gly-Trp-Nle-Thr(SO₃H)-N-methyl-Phe-NH₂] (Ac-[sY][Nle]GW[Nle][Thr(SO3H)][NMeF]-NH2) |
| 1 to 3.2 | 1 to 4.6 | CSCC[C@H](NC(=O)[C@H](Cc1ccc(OS(=O)(=O)O)cc1)NC(=O)[C@@H](N)CC(=O)O)C(=O)NCC(=O)N[C@@H](Cc1c[nH]c2ccccc12)C(=O)N[C@@H](CCSC)C(=O)N[C@@H](CC(=O)O)C(=O)N[C@@H](Cc1ccccc1)C(N)=O [CCK-8, reference compound] |
| 1600 | 70 | CSCC[C@H](NC(=O)[C@H](Cc1c[nH]c2ccccc12)NC(=O)CNC(=O)[C@H](Cc1ccc(OS(=O)(=O)O)cc1)NC(C)=O)C(=O)N[C@H](C(=O)N(C)[C@@H](Cc1ccccc1)C(N)=O)[C@@H](C)OS(=O)(=O)O [Example 2, Ac-Tyr(SO₃H)-Gly-Trp-Met-Thr(SO₃H)-N-methyl-Phe-NH₂] (Ac-[sY]GWM[Thr(SO3H)][NMeF]-NH2) |
